Source: PMC10674160, “Synthesis and Preclinical Evaluation of Radiolabeled [^103Ru]BOLD-100” (Pharmaceutics, 2023)

Assays:
HCT116 cells = assay: MTT cytotoxicity assay, 96 h exposure; type: cell-based, human; conditions: exposure time 96 h, mean ± SD
Experimental: (§1) The murine cancer cell line CT26 and the human cancer cell line HCT116 were both obtained from the American Type Culture Collection (ATCC). Both cell lines were grown as adherent monolayer cultures in 75 cm^2 culture flasks in RPMI 1640 medium (supplemented with 2 mM L-glutamine and 1% PenStrep, Gibco^TM) and 10% fetal bovine serum (FBS, Gibco^TM) at 37 °C under a humid atmosphere containing 5% CO2 and 95% air. For splitting, accutase® solution (Sigma Aldrich) was used.
(§2) Cell viability was determined by the colorimetric MTT assay. The cells were seeded in RPMI 1640 medium in a 96-well cell culture plate 24 h prior to treatment at a density of 1.5 × 10^3 (CT26) and 2 × 10^3 (HCT116) cells per well. A stock solution of compounds 3a and 3b was prepared in DMSO and then diluted with RPMI 1640 medium (maximum 0.5% v/v of DMSO per well). After serial dilutions, a 100 µL aliquot was added to each well ([…], 6.25, 3.13 µmol/L per well). […] Optical densities were measured at 490 nm with a Synergy^TM HTX Multi-Mode Reader (BioTek, Winooski, VT, USA), using a reference wavelength of 650 nm to correct for unspecific absorption. Concentration–effect curves were calculated relative to untreated controls. […]

CT26 cells = assay: MTT cytotoxicity assay, 96 h exposure; type: cell-based, murine; conditions: exposure time 96 h, mean ± SD
Experimental: as §1, §2

[1] = parameters: method as in PMID 28848672; conditions: phase I clinical study; cited from earlier work

Row | Structure (SMILES) | IC50 (HCT116 cells) [µM] | IC50 (CT26 cells) [µM] | maximum tolerated dose [1] [mg/m^2]
1 | [Cl][Ru]([Cl])([Cl])[Cl].[Na+].c1ccc2[nH]ncc2c1.c1ccc2[nH]ncc2c1 [3b, [^103Ru]sodium trans-[tetrachloridobis(indazole)ruthenate(III)]] | 94.7 ± 11.7 | 173 ± 15.1 | 
2 | [Cl][Ru-]([Cl])([Cl])[Cl].[Na+].c1ccc2[nH]ncc2c1.c1ccc2[nH]ncc2c1 [3a, sodium trans-[tetrachloridobis(indazole)ruthenate(III)]] | 99.4 ± 14.5 | 188 ± 17.8 | 625
